This passage reports IC50 results from patent publication US20090155209A1, “NOVEL MACROCYCLIC INHIBITORS OF HEPATITIS C VIRUS REPLICATION” (priority 2007, published 2009).

A word on the IC50: it is the concentration that inhibits the measured activity by half.

In this assay the target is NS3-NS4 (Hepatitis C virus genotype 1a, UniProt P27958). Nature of the assay: NS3-NS4 activity, IC50 (Example 37, Table 8). The format is biochemical.
Chain of NS3-NS4 (P27958 1027-1657): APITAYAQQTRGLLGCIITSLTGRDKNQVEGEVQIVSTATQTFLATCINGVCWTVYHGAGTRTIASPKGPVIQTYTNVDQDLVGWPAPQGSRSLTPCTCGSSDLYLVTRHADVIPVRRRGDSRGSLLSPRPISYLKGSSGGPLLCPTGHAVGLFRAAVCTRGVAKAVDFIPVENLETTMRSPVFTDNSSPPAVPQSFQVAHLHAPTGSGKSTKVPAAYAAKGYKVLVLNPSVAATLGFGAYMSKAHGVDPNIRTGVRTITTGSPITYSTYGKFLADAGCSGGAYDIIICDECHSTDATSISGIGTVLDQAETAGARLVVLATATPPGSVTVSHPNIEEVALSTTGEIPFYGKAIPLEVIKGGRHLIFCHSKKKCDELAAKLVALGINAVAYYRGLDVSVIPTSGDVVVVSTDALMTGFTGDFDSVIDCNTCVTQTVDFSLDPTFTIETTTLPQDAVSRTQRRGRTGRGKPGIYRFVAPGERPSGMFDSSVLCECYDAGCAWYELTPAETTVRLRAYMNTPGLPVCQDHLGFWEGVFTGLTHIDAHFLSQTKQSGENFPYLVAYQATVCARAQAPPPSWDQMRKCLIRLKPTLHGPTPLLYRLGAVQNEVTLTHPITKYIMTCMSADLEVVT
Chain of NS3-NS4 (P27958 1658-1711): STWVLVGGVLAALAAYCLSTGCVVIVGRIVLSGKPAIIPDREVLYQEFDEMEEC
For the molecule `COc1cccc(CS(=O)(=O)NC(=O)[C@@]23C[C@H]2CCCCCCC[C@H](NC(=O)OC(C)(C)C)C(=O)N2C[C@H](OC(=O)N4Cc5cccc(F)c5C4)C[C@H]2C(=O)N3)c1` [Compound 616], the IC50 is under 100 nM.

The molecule `CC(C)(C)OC(=O)N[C@H]1CCCCC/C=C\[C@@H]2C[C@@]2(C(=O)NS(=O)(=O)c2ccc(Cl)nc2)NC(=O)[C@@H]2C[C@@H](OC(=O)N3Cc4cccc(F)c4C3)CN2C1=O` [Compound 530] returned an IC50 of under 100 nM.

In the case of `CC(C)(C)OC(=O)N[C@H]1CCCCCCC[C@@H]2C[C@@]2(C(=O)NS(=O)(=O)Cc2ccccc2F)NC(=O)[C@@H]2C[C@@H](OC(=O)N3Cc4cccc(F)c4C3)CN2C1=O` [Compound 607], the IC50 was under 100 nM.

`Cc1cc(S(=O)(=O)NC(=O)[C@@]23C[C@H]2CCCCCCC[C@H](NC(=O)OC(C)(C)C)C(=O)N2C[C@H](OC(=O)N4Cc5cccc(F)c5C4)C[C@H]2C(=O)N3)oc1C` [Compound 640]: the 50% inhibitory concentration (IC50) is under 100 nM.

Regarding `CC(C)(C)OC(=O)N[C@H]1CCCCCCC[C@@H]2C[C@@]2(C(=O)NS(=O)(=O)Cc2c(F)cccc2F)NC(=O)[C@@H]2C[C@@H](OC(=O)N3Cc4cccc(F)c4C3)CN2C1=O` [Compound 621], the half-maximal inhibitory concentration (IC50) is under 100 nM.

As to `CC(C)(C)OC(=O)N[C@H]1CCCCCCC[C@@H]2C[C@@]2(C(=O)NS(=O)(=O)Cc2cc(C(F)(F)F)cc(C(F)(F)F)c2)NC(=O)[C@@H]2C[C@@H](OC(=O)N3Cc4cccc(F)c4C3)CN2C1=O` [Compound 634], the IC50 was under 100 nM.

Molecule `Cc1ccc(S(=O)(=O)NC(=O)[C@@]23C[C@H]2CCCCCCC[C@H](NC(=O)OC(C)(C)C)C(=O)N2C[C@H](OC(=O)N4Cc5cccc(F)c5C4)C[C@H]2C(=O)N3)s1` [Compound 644] yielded an IC50 of under 100 nM.

As for `CC(C)(C)OC(=O)N[C@H]1CCCCCCC[C@@H]2C[C@@]2(C(=O)NS(=O)(=O)Cc2cc(F)cc(F)c2)NC(=O)[C@@H]2C[C@@H](OC(=O)N3Cc4cccc(F)c4C3)CN2C1=O` [Compound 623], the IC50 was under 100 nM.

The molecule `CC(C)(C)OC(=O)N[C@H]1CCCCCCC[C@@H]2C[C@@]2(C(=O)NS(=O)(=O)Cc2ccc(Cl)cc2)NC(=O)[C@@H]2C[C@@H](OC(=O)N3Cc4cccc(F)c4C3)CN2C1=O` [Compound 612] registered an IC50 of under 100 nM.

`Cc1cccc(CS(=O)(=O)NC(=O)[C@@]23C[C@H]2CCCCCCC[C@H](NC(=O)OC(C)(C)C)C(=O)N2C[C@H](OC(=O)N4Cc5cccc(F)c5C4)C[C@H]2C(=O)N3)c1` [Compound 614]: the IC50 was under 100 nM.

Regarding `CC(C)(C)OC(=O)N[C@H]1CCCCCCC[C@@H]2C[C@@]2(C(=O)NS(=O)(=O)c2cccnc2Cl)NC(=O)[C@@H]2C[C@@H](OC(=O)N3Cc4cccc(F)c4C3)CN2C1=O` [Compound 635], the IC50 was under 100 nM.

On to `CC(C)(C)OC(=O)N[C@H]1CCCCCCC[C@@H]2C[C@@]2(C(=O)NS(=O)(=O)c2cc(Cl)c(Cl)s2)NC(=O)[C@@H]2C[C@@H](OC(=O)N3Cc4cccc(F)c4C3)CN2C1=O` [Compound 643], for which the IC50 is under 100 nM.

For the molecule `CC(C)(C)OC(=O)N[C@H]1CCCCCC2CC2[C@@H]2C[C@@]2(C(=O)NOc2ccccc2)NC(=O)[C@@H]2C[C@@H](OC(=O)N3Cc4cccc(F)c4C3)CN2C1=O` (stereo partly drawn) [Compound 906], the concentration for half-maximal inhibition (IC50) was under 100 nM.

With `COc1ccc(S(=O)(=O)NC(=O)[C@@]23C[C@H]2/C=C\CCCCC[C@H](NC(=O)OC(C)(C)C)C(=O)N2C[C@H](OC(=O)N4Cc5cccc(F)c5C4)C[C@H]2C(=O)N3)cn1` [Compound 532], the IC50 is under 100 nM.

Consider `CC(C)(C)OC(=O)N[C@H]1CCCCCCC[C@@H]2C[C@@]2(C(=O)NS(=O)(=O)Cc2cc(Cl)ccc2Cl)NC(=O)[C@@H]2C[C@@H](OC(=O)N3Cc4cccc(F)c4C3)CN2C1=O` [Compound 625], for which the half-inhibitory concentration (IC50) is under 100 nM.

`CC(C)(C)OC(=O)N[C@H]1CCCCCCC[C@@H]2C[C@@]2(C(=O)NS(=O)(=O)Cc2c(Cl)cccc2Cl)NC(=O)[C@@H]2C[C@@H](OC(=O)N3Cc4cccc(F)c4C3)CN2C1=O` [Compound 626] returned an IC50 of under 100 nM.

In the case of `Cc1ccccc1ONC(=O)[C@@]12C[C@H]1/C=C\CCCCC[C@H](NC(=O)OC(C)(C)C)C(=O)N1C[C@H](OC(=O)N3Cc4cccc(F)c4C3)C[C@H]1C(=O)N2` [Compound 701], the half-maximal inhibitory concentration (IC50) is under 100 nM.

The molecule `CC(C)(C)OC(=O)N[C@H]1CCCCCCC[C@@H]2C[C@@]2(C(=O)NS(=O)(=O)Cc2cccc(Cl)c2)NC(=O)[C@@H]2C[C@@H](OC(=O)N3Cc4cccc(F)c4C3)CN2C1=O` [Compound 611] registered an IC50 of under 100 nM.

`CC(C)(C)ONC(=O)[C@@]12C[C@H]1/C=C\CCCCC[C@H](NC(=O)OC(C)(C)C)C(=O)N1C[C@H](OC(=O)N3Cc4cccc(F)c4C3)C[C@H]1C(=O)N2` [Compound 716] had an IC50 of under 100 nM.

Molecule `COc1csc(S(=O)(=O)NC(=O)[C@@]23C[C@H]2CCCCCCC[C@H](NOC(=O)C(C)(C)C)C(=O)N2C[C@H](OC(=O)N4Cc5cccc(F)c5C4)C[C@H]2C(=O)N3)c1` [Compound 647] returned a half-maximal inhibitory concentration (IC50) of under 100 nM.

Molecule `Cc1ccccc1CS(=O)(=O)NC(=O)[C@@]12C[C@H]1/C=C\CCCCC[C@H](NC(=O)OC(C)(C)C)C(=O)N1C[C@H](OC(=O)N3Cc4cccc(F)c4C3)C[C@H]1C(=O)N2` [Compound 513] gave an IC50 of under 100 nM.

Turning to `CC(C)(C)OC(=O)N[C@H]1CCCCCCC[C@@H]2C[C@@]2(C(=O)NS(=O)(=O)Cc2ccc(Cl)c(Cl)c2)NC(=O)[C@@H]2C[C@@H](OC(=O)N3Cc4cccc(F)c4C3)CN2C1=O` [Compound 627], the IC50 was under 100 nM.

Molecule `Cc1ccc(CS(=O)(=O)NC(=O)[C@@]23C[C@H]2CCCCCCC[C@H](NC(=O)OC(C)(C)C)C(=O)N2C[C@H](OC(=O)N4Cc5cccc(F)c5C4)C[C@H]2C(=O)N3)cc1` [Compound 615] displayed an IC50 of under 100 nM.

Take `Cc1cc(S(=O)(=O)NC(=O)[C@@]23C[C@H]2CCCCCCC[C@H](NC(=O)OC(C)(C)C)C(=O)N2C[C@H](OC(=O)N4Cc5cccc(F)c5C4)C[C@H]2C(=O)N3)sc1C` [Compound 646]: the concentration for half-maximal inhibition (IC50) was under 100 nM.

Molecule `CC(C)(C)OC(=O)N[C@H]1CCCCCCC[C@@H]2C[C@@]2(C(=O)NS(=O)(=O)Cc2ccc(C(F)(F)F)cc2)NC(=O)[C@@H]2C[C@@H](OC(=O)N3Cc4cccc(F)c4C3)CN2C1=O` [Compound 619] came in with a half-maximal inhibitory concentration (IC50) of under 100 nM.

On to `CC(C)(C)OC(=O)N[C@H]1CCCCCCC[C@@H]2C[C@@]2(C(=O)NS(=O)(=O)Cc2cc(F)ccc2F)NC(=O)[C@@H]2C[C@@H](OC(=O)N3Cc4cccc(F)c4C3)CN2C1=O` [Compound 620], for which the half-inhibitory concentration (IC50) is under 100 nM.

For `CC(C)(C)OC(=O)N[C@H]1CCCCC/C=C\[C@@H]2C[C@@]2(C(=O)NOCC2CC2)NC(=O)[C@@H]2C[C@@H](OC(=O)N3Cc4cccc(F)c4C3)CN2C1=O` [Compound 717], the IC50 was under 100 nM.

With `CC(C)(C)OC(=O)N[C@H]1CCCCCCC[C@@H]2C[C@@]2(C(=O)NS(=O)(=O)Cc2ccc(C(F)(F)F)cc2C(F)(F)F)NC(=O)[C@@H]2C[C@@H](OC(=O)N3Cc4cccc(F)c4C3)CN2C1=O` [Compound 633], the half-maximal inhibitory concentration (IC50) is under 100 nM.

With `CC(C)(C)OC(=O)N[C@H]1CCCCCCC[C@@H]2C[C@@]2(C(=O)NS(=O)(=O)Cc2ccc(Cl)cc2Cl)NC(=O)[C@@H]2C[C@@H](OC(=O)N3Cc4cccc(F)c4C3)CN2C1=O` [Compound 624], the IC50 was under 100 nM.

Regarding `CC(C)(C)OC(=O)N[C@H]1CCCCCCC[C@@H]2C[C@@]2(C(=O)NS(=O)(=O)Cc2cccc(F)c2)NC(=O)[C@@H]2C[C@@H](OC(=O)N3Cc4cccc(F)c4C3)CN2C1=O` [Compound 608], the IC50 is under 100 nM.

The molecule `Cc1ccc(CS(=O)(=O)NC(=O)[C@@]23C[C@H]2CCCCCCC[C@H](NC(=O)OC(C)(C)C)C(=O)N2C[C@H](OC(=O)N4Cc5cccc(F)c5C4)C[C@H]2C(=O)N3)c(C)c1` [Compound 628] returned an IC50 of under 100 nM.

As for `CC(C)(C)OC(=O)N[C@H]1CCCCC/C=C\[C@@H]2C[C@@]2(C(=O)NOc2cccc(Cl)c2)NC(=O)[C@@H]2C[C@@H](OC(=O)N3Cc4cccc(F)c4C3)CN2C1=O` [Compound 706], the IC50 was under 100 nM.

Molecule `Cc1cc(S(=O)(=O)NC(=O)[C@@]23C[C@H]2/C=C\CCCCC[C@H](NC(=O)OC(C)(C)C)C(=O)N2C[C@H](OC(=O)N4Cc5cccc(F)c5C4)C[C@H]2C(=O)N3)sc1C` [Compound 540] displayed a half-maximal inhibitory concentration (IC50) of under 100 nM.

The molecule `CC(C)(C)OC(=O)N[C@H]1CCCCCCC[C@@H]2C[C@@]2(C(=O)NS(=O)(=O)Cc2ccc(F)c(F)c2)NC(=O)[C@@H]2C[C@@H](OC(=O)N3Cc4cccc(F)c4C3)CN2C1=O` [Compound 622] returned a half-maximal inhibitory concentration (IC50) of under 100 nM.

For the molecule `COc1cccc(CS(=O)(=O)NC(=O)[C@@]23C[C@H]2CCCCCCC[C@H](NC(=O)OC(C)(C)C)C(=O)N2C[C@H](OC(=O)N4Cc5cccc(F)c5C4)C[C@H]2C(=O)N3)c1OC` [Compound 631], the 50% inhibitory concentration (IC50) is under 100 nM.

With `CC(C)(C)OC(=O)N[C@H]1CCCCCCC[C@@H]2C[C@@]2(C(=O)NS(=O)(=O)c2ccc(Cl)s2)NC(=O)[C@@H]2C[C@@H](OC(=O)N3Cc4cccc(F)c4C3)CN2C1=O` [Compound 641], the IC50 is under 100 nM.

In turn, `Cc1ccccc1ONC(=O)[C@@]12C[C@H]1CCCCCCC[C@H](NC(=O)OC(C)(C)C)C(=O)N1C[C@H](OC(=O)N3Cc4cccc(F)c4C3)C[C@H]1C(=O)N2` [Compound 804] registered a 50% inhibitory concentration (IC50) of under 100 nM.

Regarding `Cc1ccc(CS(=O)(=O)NC(=O)[C@@]23C[C@H]2CCCCCCC[C@H](NC(=O)OC(C)(C)C)C(=O)N2C[C@H](OC(=O)N4Cc5cccc(F)c5C4)C[C@H]2C(=O)N3)cc1C` [Compound 630], the IC50 was under 100 nM.

For `CC(C)(C)OC(=O)N[C@H]1CCCCC/C=C\[C@@H]2C[C@@]2(C(=O)NOc2ccc(F)cc2)NC(=O)[C@@H]2C[C@@H](OC(=O)N3Cc4cccc(F)c4C3)CN2C1=O` [Compound 705], the IC50 is under 100 nM.

Turning to `CC(C)(C)OC(=O)N[C@H]1CCCCCCC[C@@H]2C[C@@]2(C(=O)NS(=O)(=O)Cc2ccccc2C(F)(F)F)NC(=O)[C@@H]2C[C@@H](OC(=O)N3Cc4cccc(F)c4C3)CN2C1=O` [Compound 617], the IC50 was under 100 nM.

Consider `CC(C)(C)OC(=O)N[C@H]1CCCCC/C=C\[C@@H]2C[C@@]2(C(=O)NS(=O)(=O)c2ccc(Cl)s2)NC(=O)[C@@H]2C[C@@H](OC(=O)N3Cc4cccc(F)c4C3)CN2C1=O` [Compound 535], for which the concentration for half-maximal inhibition (IC50) was under 100 nM.

`CC(C)(C)OC(=O)N[C@H]1CCCCCC2C([C@@H]3C[C@@]3(C(=O)NS(=O)(=O)C3CC3)NC(=O)[C@@H]3C[C@@H](OC(=O)N4Cc5cccc(F)c5C4)CN3C1=O)C2(Cl)Cl` (stereo partly drawn) [Compound 907] gave a half-inhibitory concentration (IC50) of 100 to 1000 nM.
